Reference: ChEMBL document CHEMBL1909046, “DrugMatrix in vitro pharmacology data”
*1 amine or outer side, *2 acyl side, *3 side chain or, on linkers, in order; H or OH if unused. Where a SMILES comes first, the peptide text is derived from it. Bridges are numbered along the chain shown (N, C = ends). Roman numbers before positions name the chains, in order. [ ]: non-standard residue; d: D form. Actinocin(1to9) = Cc1c2oc3c(C)ccc(C(=O)[*:2])c3nc-2c(C(=O)[*:1])c(N)c1=O; NMeV = CN[C@H](C(=O)O)C(C)C; Sar = CNCC(=O)O

Assays:
[1] = biological target: Receptor tyrosine-protein kinase erbB-2 (Homo sapiens, UniProt P04626); assay: biochemical; format: cell-based, Insect cells; details: insect cells;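 also: inhibition of HER2 kinase enzyme activity, measured with Poly(Glu:Tyr) as the phosphorylation substrate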
[2] = biological target: T1, C-C chemokine receptor type 4 (Homo sapiens, UniProt P51679); format: cell membranes, Chem-1, Membrane; details: chem-1
T1 sequence (P51679 whole entry): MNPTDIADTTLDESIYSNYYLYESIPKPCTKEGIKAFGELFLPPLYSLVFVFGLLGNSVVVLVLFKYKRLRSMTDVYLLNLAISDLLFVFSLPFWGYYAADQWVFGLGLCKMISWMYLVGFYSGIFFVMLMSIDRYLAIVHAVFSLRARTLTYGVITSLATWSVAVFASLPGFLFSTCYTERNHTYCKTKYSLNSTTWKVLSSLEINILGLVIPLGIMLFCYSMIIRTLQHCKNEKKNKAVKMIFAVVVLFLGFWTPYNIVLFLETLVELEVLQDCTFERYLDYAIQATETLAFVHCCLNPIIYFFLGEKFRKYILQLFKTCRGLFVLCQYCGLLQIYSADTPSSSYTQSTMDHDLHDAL

Androgen receptor = biological target: T2, Androgen receptor (Rattus norvegicus, UniProt P15207)
T2 sequence (P15207 whole entry): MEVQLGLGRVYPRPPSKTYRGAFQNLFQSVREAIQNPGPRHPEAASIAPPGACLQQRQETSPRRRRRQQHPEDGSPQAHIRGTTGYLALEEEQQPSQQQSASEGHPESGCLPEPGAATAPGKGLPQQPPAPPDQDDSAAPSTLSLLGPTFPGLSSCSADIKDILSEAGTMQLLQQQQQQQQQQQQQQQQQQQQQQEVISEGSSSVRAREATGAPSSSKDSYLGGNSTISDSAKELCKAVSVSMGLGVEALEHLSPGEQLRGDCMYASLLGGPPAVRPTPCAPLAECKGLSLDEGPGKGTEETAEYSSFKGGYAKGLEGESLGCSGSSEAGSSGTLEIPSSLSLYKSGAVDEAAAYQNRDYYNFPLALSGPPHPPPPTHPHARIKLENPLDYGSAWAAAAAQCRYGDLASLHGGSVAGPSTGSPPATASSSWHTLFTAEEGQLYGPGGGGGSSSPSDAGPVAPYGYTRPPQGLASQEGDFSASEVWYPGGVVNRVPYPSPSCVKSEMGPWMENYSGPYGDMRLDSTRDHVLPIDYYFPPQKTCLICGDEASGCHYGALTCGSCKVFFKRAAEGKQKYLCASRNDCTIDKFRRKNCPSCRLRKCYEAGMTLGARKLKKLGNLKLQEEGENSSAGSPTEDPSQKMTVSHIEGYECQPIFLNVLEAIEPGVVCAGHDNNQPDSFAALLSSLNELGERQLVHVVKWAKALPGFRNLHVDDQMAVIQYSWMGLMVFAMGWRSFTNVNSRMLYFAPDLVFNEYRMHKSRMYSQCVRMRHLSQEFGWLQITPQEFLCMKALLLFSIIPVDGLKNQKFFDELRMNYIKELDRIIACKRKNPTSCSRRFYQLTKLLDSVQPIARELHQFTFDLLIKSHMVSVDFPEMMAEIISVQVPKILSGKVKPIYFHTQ

[3] = biological target: T3, Alpha-2A adrenergic receptor (Homo sapiens, UniProt P08913); format: cell membranes, Sf9, Membrane
T3 sequence (P08913 whole entry): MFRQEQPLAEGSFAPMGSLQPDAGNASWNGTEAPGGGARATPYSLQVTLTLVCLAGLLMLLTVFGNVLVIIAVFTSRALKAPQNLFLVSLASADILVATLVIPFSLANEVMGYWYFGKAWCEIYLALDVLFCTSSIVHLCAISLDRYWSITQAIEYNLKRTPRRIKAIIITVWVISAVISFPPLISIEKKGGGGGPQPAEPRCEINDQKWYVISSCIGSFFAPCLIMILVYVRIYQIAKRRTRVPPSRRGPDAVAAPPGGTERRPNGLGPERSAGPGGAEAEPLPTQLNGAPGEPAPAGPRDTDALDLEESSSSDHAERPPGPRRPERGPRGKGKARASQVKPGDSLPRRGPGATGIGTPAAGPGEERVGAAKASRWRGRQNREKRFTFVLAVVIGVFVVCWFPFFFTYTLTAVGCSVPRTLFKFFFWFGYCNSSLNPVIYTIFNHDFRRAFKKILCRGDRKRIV

[4] = biological target: 5-hydroxytryptamine receptor 1B (Rattus norvegicus, UniProt P28564); format: cell membranes, Wistar, Cerebral cortex, Membrane
Sequence of 5-hydroxytryptamine receptor 1B (P28564 whole entry): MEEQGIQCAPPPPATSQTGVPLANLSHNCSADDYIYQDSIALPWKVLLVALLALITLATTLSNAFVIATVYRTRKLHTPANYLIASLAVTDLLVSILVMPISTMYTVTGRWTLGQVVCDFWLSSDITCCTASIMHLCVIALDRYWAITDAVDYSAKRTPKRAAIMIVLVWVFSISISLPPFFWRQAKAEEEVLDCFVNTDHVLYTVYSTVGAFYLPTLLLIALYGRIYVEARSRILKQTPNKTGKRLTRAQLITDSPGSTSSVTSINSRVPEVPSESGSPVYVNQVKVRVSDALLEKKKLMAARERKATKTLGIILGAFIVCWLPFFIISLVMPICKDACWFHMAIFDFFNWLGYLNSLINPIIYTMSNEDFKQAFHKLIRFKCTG

Cytochrome P450 2D6 = Cytochrome P450 2D6 (Homo sapiens, UniProt P10635)
Sequence of Cytochrome P450 2D6 (P10635 whole entry): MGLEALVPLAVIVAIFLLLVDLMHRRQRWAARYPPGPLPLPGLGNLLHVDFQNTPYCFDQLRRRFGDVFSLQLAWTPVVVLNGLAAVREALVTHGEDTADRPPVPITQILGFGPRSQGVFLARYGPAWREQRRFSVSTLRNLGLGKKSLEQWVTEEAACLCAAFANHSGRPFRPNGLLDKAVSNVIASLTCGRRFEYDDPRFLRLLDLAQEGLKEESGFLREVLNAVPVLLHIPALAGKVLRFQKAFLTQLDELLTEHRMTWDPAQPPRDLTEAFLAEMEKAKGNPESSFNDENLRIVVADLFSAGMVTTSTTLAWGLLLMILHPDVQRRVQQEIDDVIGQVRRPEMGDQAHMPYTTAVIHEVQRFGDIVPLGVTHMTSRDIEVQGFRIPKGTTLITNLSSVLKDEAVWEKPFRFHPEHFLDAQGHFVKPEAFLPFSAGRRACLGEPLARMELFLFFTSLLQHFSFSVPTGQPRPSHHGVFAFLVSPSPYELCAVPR
Also: in other assays of this panel Not Active means under 50% inhibition at 10 µM.

| Compound | IC50 [1] | IC50 [2] | IC50 (Androgen receptor) | IC50 ([3]; sf9) | IC50 [4] | also measured |
| --- | --- | --- | --- | --- | --- | --- |
| CC(C)CN(C[C@@H](O)[C@H](Cc1ccccc1)NC(=O)O[C@H]1CCOC1)S(=O)(=O)c1ccc(N)cc1 | Not Active | Not Active | Not Active | Not Active | Not Active |  |
| NC(=O)N1c2ccccc2CCc2ccccc21 | Not Active | Not Active | Not Active | Not Active | Not Active |  |
| Cc1onc(O)c1CC(N)C(=O)O (racemic) [(R,S)-AMPA] | Not Active | Not Active | Not Active | Not Active | Not Active |  |
| Nc1c(Br)cc(Br)cc1CN[C@H]1CC[C@H](O)CC1 [AMBROXOL] | Not Active | Not Active | Not Active | Not Active | Not Active |  |
| CCC1(c2ccc(N)cc2)CCC(=O)NC1=O (stereo not drawn) [AMINOGLUTETHIMIDE] | Not Active | Not Active | Not Active | Not Active | Not Active |  |
| COc1ccc(C[C@H]2NC[C@H](O)[C@H]2OC(C)=O)cc1 [ANISOMYCIN] | Not Active | Not Active | Not Active | Not Active | Not Active | Ki [1]: Not Active; Ki [2]: Not Active; Ki (Androgen receptor): Not Active; Ki ([3]; sf9): Not Active; Ki [4]: Not Active |
| Nc1ncn([C@@H]2O[C@H](CO)[C@@H](O)[C@H]2O)c(=O)n1 [AZACITIDINE] | Not Active | Not Active | Not Active | Not Active | Not Active |  |
| CN(C)C(=O)Oc1cc(OC(=O)N(C)C)cc(C(O)CNC(C)(C)C)c1 (stereo not drawn) [BAMBUTEROL] | Not Active | Not Active | Not Active | Not Active | Not Active | IC50 (Cytochrome P450 2D6): 2000 nM |
| c1ccc2c(c1)c1cccc3ccc4cccc2c4c31 [BENZO[E]PYRENE] | Not Active | Not Active | Not Active | Not Active | Not Active |  |
| CN(Cc1ccc(C(C)(C)C)cc1)Cc1cccc2ccccc12 [BUTENAFINE] | Not Active | Not Active |  |  | Not Active | IC50 (Cytochrome P450 2D6): 300 nM; IC50 ([3]; read-out: IC50): 3640 nM; Ki ([3]; read-out: Ki): 1370 nM |
| C[C@H](CS)C(=O)N1CCC[C@H]1C(=O)O [CAPTOPRIL] | Not Active | Not Active | Not Active | Not Active | Not Active |  |
| Cc1ccc(-c2cc(C(F)(F)F)nn2-c2ccc(S(N)(=O)=O)cc2)cc1 [CELECOXIB] | Not Active | Not Active | Not Active | Not Active | Not Active | IC50 (Cytochrome P450 2D6): 1000 nM |
| CC1=C2C(=CO[C@H](C)[C@H]2C)C(O)=C(C(=O)O)C1=O [CITRININ] | Not Active | Not Active | Not Active | Not Active | Not Active |  |
| CC(C)(C)NCC(O)c1cc(Cl)c(N)c(Cl)c1 (stereo not drawn) [CLENBUTEROL] | Not Active | Not Active | Not Active | Not Active | Not Active |  |
| Cc1c2oc3c(C)ccc(C(=O)N[C@@H]4C(=O)N[C@H](C(C)C)C(=O)N5CCC[C@H]5C(=O)N(C)CC(=O)N(C)[C@@H](C(C)C)C(=O)O[C@@H]4C)c3nc-2c(C(=O)N[C@@H]2C(=O)N[C@H](C(C)C)C(=O)N3CCC[C@H]3C(=O)N(C)CC(=O)N(C)[C@@H](C(C)C)C(=O)O[C@@H]2C)c(N)c1=O [DACTINOMYCIN] (I: T[dV]P[Sar][NMeV] / II: T[dV]P[Sar][NMeV]; ester I:1-I:C, II:1-II:C; linker I:N-II:N via Actinocin(1to9)) | Not Active | Not Active | Not Active | Not Active | Not Active |  |
| CNCCCN1c2ccccc2CCc2ccccc21 [DESIPRAMINE] | Not Active | Not Active | Not Active | Not Active | Not Active |  |

| Compound | IC50 [1] | IC50 [2] | IC50 (Androgen receptor) | IC50 ([3]; sf9) | IC50 [4] | also measured |
| --- | --- | --- | --- | --- | --- | --- |
| O=c1oc2ccccc2c(O)c1Cc1c(O)c2ccccc2oc1=O [DICUMAROL] | Not Active | Not Active | Not Active | Not Active | Not Active |  |
| C[C@H]1O[C@@H](O[C@H]2[C@@H](O)C[C@H](O[C@H]3[C@@H](O)C[C@H](O[C@H]4CC[C@@]5(C)[C@H](CC[C@@H]6[C@@H]5C[C@@H](O)[C@]5(C)[C@@H](C7=CC(=O)OC7)CC[C@]65O)C4)O[C@@H]3C)O[C@@H]2C)C[C@H](O)[C@@H]1O [DIGOXIN] | Not Active | Not Active | Not Active | Not Active | Not Active |  |
| CC(C)[C@H]1C(=O)N2CCC[C@H]2[C@]2(O)O[C@](NC(=O)[C@@H]3C=C4c5cccc6[nH]cc(c56)C[C@H]4N(C)C3)(C(C)C)C(=O)N12 [ERGOCORNINE] | Not Active | Not Active | Not Active |  |  | IC50 ([3]; read-out: IC50): 6.3 nM; Ki ([3]; read-out: Ki): 2.36 nM; IC50 ([4]; read-out: IC50): 30 nM; Ki ([4]; read-out: Ki): 19 nM |
| CCCCN1CCCC[C@H]1C(=O)Nc1c(C)cccc1C [LEVOBUPIVACAINE] | Not Active | Not Active | Not Active | Not Active | Not Active | IC50 (Cytochrome P450 2D6): 196 nM |
| C=C(C)C1(O)OC(=O)C=C1OC (stereo not drawn) [PENICILLIC ACID] | Not Active | Not Active | Not Active | Not Active | Not Active |  |
| CC1(C)S[C@@H]2[C@H](NC(=O)Cc3ccccc3)C(=O)N2[C@H]1C(=O)O [PENICILLIN G] | Not Active | Not Active |  | Not Active | Not Active |  |
| CCCN1C[C@H](CSC)C[C@@H]2c3cccc4[nH]cc(c34)C[C@H]21 [PERGOLIDE] | Not Active | Not Active |  |  |  | IC50 (Cytochrome P450 2D6): 200 nM; IC50 ([4]; read-out: IC50): 87 nM; Ki ([4]; read-out: Ki): 40 nM |
| CCOc1ccc(NC(C)=O)cc1 [PHENACETIN] | Not Active | Not Active | Not Active | Not Active | Not Active |  |
| Cc1ccc(N(CC2=NCCN2)c2cccc(O)c2)cc1 [PHENTOLAMINE] | Not Active | Not Active |  |  | Not Active | IC50 (Cytochrome P450 2D6): 10000 nM |
| CNNCc1ccc(C(=O)NC(C)C)cc1 [PROCARBAZINE] | Not Active | Not Active |  | Not Active | Not Active |  |
| CN(C)CCCN1c2ccccc2Sc2ccccc21 [PROMAZINE] | Not Active | Not Active |  |  | Not Active | IC50 ([3]; read-out: IC50): 337 nM; Ki ([3]; read-out: Ki): 126 nM |
| CC(O)CO (stereo not drawn) [PROPYLENE GLYCOL] | Not Active | Not Active |  | Not Active | Not Active |  |
| CADMIUM ACETATE |  | Not Active | Not Active |  | Not Active | IC50 ([1]; read-out: IC50): 1190 nM; Ki [2]: Not Active; Ki (Androgen receptor): Not Active; IC50 ([3]; sf9, read-out: IC50): 4560 nM; Ki [4]: Not Active |
| LEAD (II) ACETATE | Not Active | Not Active | Not Active |  | Not Active | Ki [1]: Not Active; Ki [2]: Not Active; Ki (Androgen receptor): Not Active; IC50 ([3]; sf9, read-out: IC50): 3600 nM; Ki [4]: Not Active |
| LIPOPOLYSACCHARIDE E. COLI O55:B5 |  | Not Active | Not Active | Not Active | Not Active | IC50 ([1]; read-out: IC50): 449 nM; Ki [2]: Not Active; Ki (Androgen receptor): Not Active; Ki ([3]; sf9): Not Active; Ki [4]: Not Active |
